The values that follow come from patent publication US7915295B2, “Non-nucleotide reverse transcriptase inhibitors” (priority 2004, dated 2011).

The first assay relates to wild type HIV (HIVIIIB).
Test: not given
Conditions: read-out: ED50 (the source's name); cited from earlier work.
On to `O=C(Nc1ccc(Oc2ccccc2)cn1)N[C@@H]1[C@@H]2COc3c(F)ccc(F)c3[C@@H]21` (relative stereo) [Prior art, cis-1-(4,7-difluoro-1,1a,2,7b-tetrahydro-cyclopropa[c]chromen-1-yl)-3-(5-phenoxy-pyridin-2-yl)-urea, reference compound], for which the EC50 is 7 nM.

A further assay has as its target T1, HIV-1 reverse transcriptase L100I+K103N mutant (Human immunodeficiency virus type 1 group M subtype B, UniProt P03366, K702N/L699I).
T1 construct: made in house; host or cells: E. coli BL21 (DE3)
Put plainly: HIV-1 reverse transcriptase SPA (scintillation proximity) assay with mutant RT. It counts as biochemical. The settings on record: K103N double escape mutant. The procedure:
Convenient reverse transcriptase assays use reverse transcriptase bearing key drug escape mutations prepared broadly as described in Unge et al Eur. J. Biochem. 269, 1670-1677 (2002).
For example a K103N mutant is prepared using this methodology and the primers
The L100I/K103 N mutant is prepared by mutation of L100 in the K103N enzyme:
Mutations are done in the HIVRT DH10 clone cDNA cloned into the pET11d expression vector. The mutations are generated by amplification of the mutated DNA with the help of the enzyme Pfu. Cloning was then performed in E. coli TOP10 cells and expression of mutated enzyme was performed in E. coli BL21 (DE3) cells after induction with IPTG.
The HIV-1 reverse transcriptase assay utilized a SPA (scintillation proximity assay) system relying on fluomicrospheres coated with the receptor molecule streptavidine (Flashplates, PerkinElmer Life Science) which is capable of binding radiolabelled ligands in the reaction solution. In the assay, a biotinylated primer (5′-GTC ATA GCT GTT TCC TG-3′) is pre-annealed with a DNA heterogeneous template (synthesized by GENSE) giving a sequence of 5′-CG UCUGGCAUUGCGAGCGGAUAA CM UUU CAC ACA GGA MC AGC UAU GAC-3′ in an RNase free environment. HIV-1 reverse transcriptase (such as L100I+K103N) catalyzed RNA-dependent DNA activity was measured in the presence of 50 mM Tris-HCl pH=8.0, 80 mM KCl, 10 mM MgCl2, 10 mM Dithiothreitol, 5 mg/ml BSA and 0.05% Nonidet P40 where the incorporation of tritium-labeled dGTP (Amersham, 35 Ci/mmol) and 11 uM of dNTP (dATP, dCTP and dTTP) was monitored at room temperature. The dGTP concentration was used at a Km value of 0.25 uM, 10 nM of RNA template was used and mutant RT (such as L100I+K103N) was used at 180 ng/ml in 100 ul reaction volume for 120 min reaction.
Compounds of the invention were assayed for HIV activity against the problematic L100I, K103N mutant in an invitro assay as outlined below. For reference, the closest prior art compound, cis-1-(4,7-difluoro-1,1a,2,7b-tetrahydro-cyclopropa[c]chromen-1-yl)-3-(5-phenoxy-pyridin-2-yl)-urea, example 20 of WO 02/070516 as depicted above, was assayed in the same system.
As usually defined, the IC50 is the concentration at which inhibition is half-maximal. Low values mean inhibition by little substance, high ones a need for much substance. `NNC(=O)c1ccc(Oc2ccc(NC(=O)N[C@@H]3[C@H]4COc5c(F)ccc(F)c5[C@H]43)nc2)cc1` [Example 11, N-[(1S,1aS,7bS)-4,7-difluoro-1,1a,2,7b-tetrahydrocyclopropa[c]chromen-1-yl]-N′-{5-[4-(hydrazinocarbonyl)phenoxy]-2-pyridinyl}urea] came in with a half-maximal inhibitory concentration (IC50) of 10 nM.

`CS(=O)(=O)c1ccc(Oc2ccc(NC(=O)N[C@@H]3[C@@H]4COc5c(F)ccc(F)c5[C@@H]43)nc2)cc1` [Example 5, N-[(1S,1aR,7bR)-4,7-difluoro-1,1a,2,7b-tetrahydrocyclopropa[c]chromen-1-yl]-N′-[5-(4-(methylsulfon)phenoxy)-2-pyridinyl]urea] registered a half-maximal inhibitory concentration (IC50) of 40 nM.

As for `NC(=O)c1ccc(Oc2ccc(NC(=O)N[C@@H]3[C@@H]4COc5c(F)ccc(F)c5[C@@H]43)nc2)cc1` [Example 9, 4-({6-[({[(1S,1aR,7bR)-4,7-difluoro-1,1a,2,7b-tetrahydrocyclopropa[c]chromen-1-yl]amino}carbonyl)amino]-3-pyridinyl}oxy)benzamide], 28 nM corresponded to half-maximal inhibition (IC50).

Turning to `NS(=O)(=O)c1ccc(Oc2ccc(NC(=O)N[C@@H]3[C@@H]4COc5c(F)ccc(F)c5[C@@H]43)nc2)cc1` [Example 1, N-[(1S,1aR,7bR)-4,7-difluoro-1,1a,2,7b-tetrahydrocyclopropa[c]chromen-1-yl]-N′-[5-(4-(sulfonamido)phenoxy)-2-pyridinyl]urea], it took 29 nM to reach half-maximal inhibition (IC50).

For the compound `O=C(Nc1ccc(Oc2ccc(-n3cncn3)cc2)cn1)N[C@@H]1[C@@H]2COc3c(F)ccc(F)c3[C@@H]21` [Example 14, N-[(1S,1aR,7bR)-4,7-difluoro-1,1a,2,7b-tetrahydrocyclopropa[c]chromen-1-yl]-N′-{5-[4-(1H-1,2,4-triazol-1-yl)phenoxy]pyridin-2-yl}urea], the concentration for half-maximal inhibition (IC50) is 60 nM.

`O=C(Nc1ccc(Oc2ccccc2)cn1)N[C@@H]1[C@@H]2COc3c(F)ccc(F)c3[C@@H]21` (relative stereo) [Prior art, cis-1-(4,7-difluoro-1,1a,2,7b-tetrahydro-cyclopropa[c]chromen-1-yl)-3-(5-phenoxy-pyridin-2-yl)-urea, reference compound] yielded a half-maximal inhibitory concentration (IC50) of 600 nM.

`CNC(=O)c1ccc(Oc2ccc(NC(=O)N[C@@H]3[C@@H]4COc5c(F)ccc(F)c5[C@@H]43)nc2)cc1` [Example 2, N-[(1S,1 aR,7bR)-4,7-difluoro-1,1a,2,7b-tetrahydrocyclopropa[c]chromen-1-yl]-N′-[5-(4-(N-methylcarboxyamido)phenoxy)-2-pyridinyl]urea] yielded an IC50 of 26 nM.

Compound `O=C(Nc1ccc(Oc2ccc(C(=O)NC3CC3)cc2)cn1)N[C@@H]1[C@H]2COc3c(F)ccc(F)c3[C@H]21` [Example 12, 4-({6-[({[(1S,1aS,7bS)-4,7-difluoro-1,1a,2,7b-tetrahydrocyclopropa[c]chromen-1-yl]amino}carbonyl)amino]-3-pyridinyl}oxy)-N-cyclopropylbenzamide] had an IC50 of 27 nM.

Compound `NC(=O)c1ccc(Oc2ccc(NC(=O)N[C@@H]3[C@@H]4COc5c(F)ccc(F)c5[C@@H]43)nc2)cn1` [Example 10, 5-({6-[({[(1S,1aR,7bR)-4,7-difluoro-1,1a,2,7b-tetrahydrocyclopropa[c]chromen-1-yl]amino}carbonyl)amino]-3-pyridinyl}oxy)-2-pyridinecarboxamide] registered a half-inhibitory concentration (IC50) of 80 nM.

`CNC(=O)c1ccc(Oc2ccc(NC(=O)N[C@@H]3[C@@H]4COc5c(F)ccc(F)c5[C@@H]43)nc2)cn1` [Example 8, 5-({6-[({[(1S,1aR,7bR)-4,7-difluoro-1,1a,2,7b-tetrahydrocyclopropa[c]chromen-1-yl]amino}carbonyl)amino]-3-pyridinyl}oxy)-N-methyl-2-pyridinecarboxamide] came in with a concentration for half-maximal inhibition (IC50) of 70 nM.

`CC(=O)Nc1ccc(Oc2ccc(NC(=O)N[C@@H]3[C@H]4COc5c(F)ccc(F)c5[C@H]43)nc2)cc1` [Example 13, N-[4-({6-[({[(1S,1aS,7bS)-4,7-difluoro-1,1a,2,7b-tetrahydrocyclopropa[c]chromen-1-yl]amino}carbonyl)amino]-3-pyridinyl}oxy)phenyl]acetamide] displayed a 50% inhibitory concentration (IC50) of 40 nM.

For `Nc1ccc(Oc2ccc(NC(=O)N[C@@H]3[C@@H]4COc5c(F)ccc(F)c5[C@@H]43)nc2)cc1` [Example 4, N-[(1S,1aR,7bR)-4,7-difluoro-1,1a,2,7b-tetrahydrocyclopropa[c]chromen-1-yl]-N′-[5-(4-aminophenoxy)-2-pyridinyl]urea], the IC50 was 70 nM.

Consider `CS(=O)(=O)Nc1ccc(Oc2ccc(NC(=O)N[C@@H]3[C@@H]4COc5c(F)ccc(F)c5[C@@H]43)nc2)cc1` [Example 3, N-[(1S,1aR,7bR)-4,7-difluoro-1,1a,2,7b-tetrahydrocyclopropa[c]chromen-1-yl]-N′-[5-(4-(N-methylsulfonamido)phenoxy)-2-pyridinyl]urea], for which half-maximal inhibition (IC50) required 60 nM.
